This passage reports TGI results from PubChem BioAssay (NCI).

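Growth conditions: 96-well plates. Treatment: test compound, 48 hours, 5 concentrations. Analysis: linear interpolation between bracketing concentrations; unreached endpoints set to highest concentration. TGI: concentration producing complete growth inhibition.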

For one test, the system named is KM12 colon. The test is described as follows: growth of human tumour cells (NCI), 48 h.
Take `O=C(O)C1C(C(=O)O)C2C(=O)C=CC1N2Cc1ccccc1` (centres undefined): the TGI stood at 12.7 µM.

The next test relates to OVCAR-5 ovarian. The test is described as follows: growth of human tumour cells (NCI), 48 h.
On to `O=C(O)c1c[nH]c2c(Sc3ccccc3)nccc2c1=O`, for which the TGI is over 100 µM.

In the case of `CCOC(=O)c1cc(Sc2ccc(N)c(C(=O)OCC)c2)ccc1N`, the TGI is over 100 µM.

The compound `NC1CC(=O)c2cc(Cl)sc21` (centres undefined) gave a TGI of over 100 µM.

On to `O=C(O)C1C(C(=O)O)C2C(=O)C=CC1N2Cc1ccccc1` (centres undefined), for which the TGI was determined as 20.5 µM.

In another test the test system is NCI-H460 lung. The test is described as follows: growth of human tumour cells (NCI), 48 h.
Compound `O=C(O)c1c[nH]c2c(Sc3ccccc3)nccc2c1=O` came in with a TGI of over 100 µM.

With `CCOC(=O)c1cc(Sc2ccc(N)c(C(=O)OCC)c2)ccc1N`, the TGI is over 100 µM.

`NC1CC(=O)c2cc(Cl)sc21` (centres undefined) displayed a TGI of over 100 µM.

In turn, `O=C(O)C1C(C(=O)O)C2C(=O)C=CC1N2Cc1ccccc1` (centres undefined) had a TGI of 5.1 µM.

A further test deals with SK-MEL-5 melanoma. The test is described as follows: growth of human tumour cells (NCI), 48 h.
As for `O=C(O)c1c[nH]c2c(Sc3ccccc3)nccc2c1=O`, the TGI is over 100 µM.

The compound `CCOC(=O)c1cc(Sc2ccc(N)c(C(=O)OCC)c2)ccc1N` gave a TGI of over 100 µM.

As to `NC1CC(=O)c2cc(Cl)sc21` (centres undefined), the TGI is over 100 µM.

Compound `O=C(O)C1C(C(=O)O)C2C(=O)C=CC1N2Cc1ccccc1` (centres undefined) displayed a TGI of 17.2 µM.

The test system of another test is CCRF-CEM leukemia. The test is described as follows: growth of human tumour cells (NCI), 48 h.
Consider `O=C(O)c1c[nH]c2c(Sc3ccccc3)nccc2c1=O`, for which the TGI is over 100 µM.

For `CCOC(=O)c1cc(Sc2ccc(N)c(C(=O)OCC)c2)ccc1N`, the TGI was over 100 µM.

Compound `NC1CC(=O)c2cc(Cl)sc21` (centres undefined) showed a TGI of over 100 µM.

Turning to `O=C(O)C1C(C(=O)O)C2C(=O)C=CC1N2Cc1ccccc1` (centres undefined), the TGI turned out to be 2.75 µM.

The subject of a further test is UACC-257 melanoma. The test is described as follows: growth of human tumour cells (NCI), 48 h.
In turn, `O=C(O)c1c[nH]c2c(Sc3ccccc3)nccc2c1=O` returned a TGI of over 100 µM.

`CCOC(=O)c1cc(Sc2ccc(N)c(C(=O)OCC)c2)ccc1N` returned a TGI of over 100 µM.

`NC1CC(=O)c2cc(Cl)sc21` (centres undefined): the TGI was over 100 µM.

`O=C(O)C1C(C(=O)O)C2C(=O)C=CC1N2Cc1ccccc1` (centres undefined) displayed a TGI of 11.6 µM.

Another test concerns TK-10 renal. The test is described as follows: growth of human tumour cells (NCI), 48 h.
Take `O=C(O)c1c[nH]c2c(Sc3ccccc3)nccc2c1=O`: the TGI was over 100 µM.

In the case of `NC1CC(=O)c2cc(Cl)sc21` (centres undefined), the TGI is over 100 µM.

Turning to `O=C(O)C1C(C(=O)O)C2C(=O)C=CC1N2Cc1ccccc1` (centres undefined), the TGI was 11.4 µM.

Another test has as its system RPMI-8226 leukemia. The test is described as follows: growth of human tumour cells (NCI), 48 h.
On to `CCOC(=O)c1cc(Sc2ccc(N)c(C(=O)OCC)c2)ccc1N`, for which the TGI is over 100 µM.

For the compound `O=C(O)C1C(C(=O)O)C2C(=O)C=CC1N2Cc1ccccc1` (centres undefined), the TGI stood at 13.6 µM.

A further test relates to MDA-MB-231 breast. Nature of the test: growth of human tumour cells (NCI), 48 h.
Take `O=C(O)c1c[nH]c2c(Sc3ccccc3)nccc2c1=O`: the TGI is over 100 µM.

Take `CCOC(=O)c1cc(Sc2ccc(N)c(C(=O)OCC)c2)ccc1N`: the TGI was over 100 µM.

As for `NC1CC(=O)c2cc(Cl)sc21` (centres undefined), the TGI is over 100 µM.

Regarding `O=C(O)C1C(C(=O)O)C2C(=O)C=CC1N2Cc1ccccc1` (centres undefined), the TGI is 14.4 µM.

In the next test the test system is PC-3 prostate. Nature of the test: growth of human tumour cells (NCI), 48 h.
`O=C(O)c1c[nH]c2c(Sc3ccccc3)nccc2c1=O` had a TGI of over 100 µM.

`CCOC(=O)c1cc(Sc2ccc(N)c(C(=O)OCC)c2)ccc1N` displayed a TGI of over 100 µM.

The compound `NC1CC(=O)c2cc(Cl)sc21` (centres undefined) had a TGI of over 100 µM.

`O=C(O)C1C(C(=O)O)C2C(=O)C=CC1N2Cc1ccccc1` (centres undefined) showed a TGI of 18.8 µM.

The next test relates to MCF7 breast. Nature of the test: growth of human tumour cells (NCI), 48 h.
`O=C(O)c1c[nH]c2c(Sc3ccccc3)nccc2c1=O` came in with a TGI of over 100 µM.

In turn, `CCOC(=O)c1cc(Sc2ccc(N)c(C(=O)OCC)c2)ccc1N` had a TGI of over 100 µM.

The compound `O=C(O)C1C(C(=O)O)C2C(=O)C=CC1N2Cc1ccccc1` (centres undefined) returned a TGI of 25.7 µM.

The next test concerns NCI-H23 lung. The test is described as follows: growth of human tumour cells (NCI), 48 h.
Regarding `O=C(O)c1c[nH]c2c(Sc3ccccc3)nccc2c1=O`, the TGI is over 100 µM.

`CCOC(=O)c1cc(Sc2ccc(N)c(C(=O)OCC)c2)ccc1N` showed a TGI of over 100 µM.

As to `NC1CC(=O)c2cc(Cl)sc21` (centres undefined), the TGI was over 100 µM.

As for `O=C(O)C1C(C(=O)O)C2C(=O)C=CC1N2Cc1ccccc1` (centres undefined), the TGI was 7.71 µM.

Another test concerns BT-549 breast. The test is described as follows: growth of human tumour cells (NCI), 48 h.
The compound `O=C(O)c1c[nH]c2c(Sc3ccccc3)nccc2c1=O` yielded a TGI of over 100 µM.

`CCOC(=O)c1cc(Sc2ccc(N)c(C(=O)OCC)c2)ccc1N` registered a TGI of over 100 µM.

`NC1CC(=O)c2cc(Cl)sc21` (centres undefined) came in with a TGI of over 100 µM.

`O=C(O)C1C(C(=O)O)C2C(=O)C=CC1N2Cc1ccccc1` (centres undefined) registered a TGI of 17.4 µM.

The subject of a further test is OVCAR-3 ovarian. Nature of the test: growth of human tumour cells (NCI), 48 h.
For the compound `O=C(O)c1c[nH]c2c(Sc3ccccc3)nccc2c1=O`, the TGI is over 100 µM.

`CCOC(=O)c1cc(Sc2ccc(N)c(C(=O)OCC)c2)ccc1N` had a TGI of over 100 µM.

As to `NC1CC(=O)c2cc(Cl)sc21` (centres undefined), the TGI was over 100 µM.

For the compound `O=C(O)C1C(C(=O)O)C2C(=O)C=CC1N2Cc1ccccc1` (centres undefined), the TGI was determined as 10.1 µM.

For a further test, the system named is HS 578T breast. Nature of the test: growth of human tumour cells (NCI), 48 h.
On to `O=C(O)c1c[nH]c2c(Sc3ccccc3)nccc2c1=O`, for which the TGI is over 100 µM.

`CCOC(=O)c1cc(Sc2ccc(N)c(C(=O)OCC)c2)ccc1N` returned a TGI of over 100 µM.

In turn, `NC1CC(=O)c2cc(Cl)sc21` (centres undefined) registered a TGI of over 100 µM.

Take `O=C(O)C1C(C(=O)O)C2C(=O)C=CC1N2Cc1ccccc1` (centres undefined): the TGI turned out to be 6.1 µM.

The subject of another test is MALME-3M melanoma. The test is described as follows: growth of human tumour cells (NCI), 48 h.
The compound `CCOC(=O)c1cc(Sc2ccc(N)c(C(=O)OCC)c2)ccc1N` displayed a TGI of over 100 µM.
